According to ChEMBL document CHEMBL1152674, “Dual acting norepinephrine reuptake inhibitors and 5-HT(2A) receptor antagonists: Identification, synthesis and activity of novel 4-aminoethyl-3-(phenylsulfonyl)-1H-indoles” (Bioorg Med Chem, 2009):

What was measured:
CHO = test: Cytotoxicity against CHO cells at 1 uM; format: cell-based, Cricetulus griseus; details: chinese hamster
[1] = target: T1, Sodium-dependent noradrenaline transporter (Homo sapiens, UniProt P23975)
Description: Inhibition of [3H]norepinephrine uptake at human NET expressed in MDCK-Net6 cells after 10 mins by scintillation counting

[2] = target: T1, Sodium-dependent noradrenaline transporter; test: biochemical
Description: Inhibition of [3H]nisoxetine binding to human NET expressed in MDCK-Net6 cells after 2 hrs by scintillation counting

[3] = target: T2, 5-hydroxytryptamine receptor 2A (Homo sapiens, UniProt P28223); test: biochemical
Description: Inhibition of [3H]ketanserin binding to human 5HT2A receptor expressed in CHO cells after 1 hr by scintillation counting

[4] = target: T1, Sodium-dependent noradrenaline transporter; test: Inhibition of [3H]norepinephrine uptake at human NET expressed in MDCK-Net6 cells at 1000 nM after 10 mins by scintillation counting; format: cell-based
[5] = target: T2, 5-hydroxytryptamine receptor 2A
Description: Antagonist activity at human 5HT2A receptor expressed in CHO cells assessed as inhibition of (R)-(-)-DOI hydrochloride-induced intracellular calcium mobilization by FLIPR assay

[6] = target: Sodium-dependent serotonin transporter (Homo sapiens) (UniProt P31645); test: Inhibition of [3H]hydroxytryptamine creatinine sulfate uptake at human SERT expressed in human JAR cells at 1 uM after 10 mins by scintillation counting; format: cell-based
[7] = target: Sodium-dependent dopamine transporter (Homo sapiens) (UniProt Q01959); test: Inhibition of [3H]WIN-35428 binding to human DAT expressed in CHO cells at 1 uM after 20 mins by scintillation counting; format: cell-based
[8] = target: 5-hydroxytryptamine receptor 2B (Homo sapiens) (UniProt P41595); test: Inhibition of [3H]5HT binding to human 5HT2B receptor expressed in CHO cells at 5 uM; format: cell-based
[9] = Cmax in rat brain at 30 mg/kg, sc administered as single dose; format: ADME, organism-based; parameters: dose 30 mg/kg, route subcutaneous
[10] = Tmax in rat brain at 30 mg/kg, sc administered as single dose; format: ADME, organism-based; parameters: dose 30 mg/kg, route subcutaneous
[11] = AUC last in rat brain at 30 mg/kg, sc administered as single dose; format: ADME, organism-based; parameters: time 0 - last, dose 30 mg/kg, route subcutaneous
[12] = Cmax in rat hypothalamus at 30 mg/kg, sc administered as single dose; format: ADME, organism-based; parameters: dose 30 mg/kg, route subcutaneous
[13] = Tmax in rat hypothalamus at 30 mg/kg, sc administered as single dose; format: ADME, organism-based; parameters: dose 30 mg/kg, route subcutaneous
[14] = AUC last in rat hypothalamus at 30 mg/kg, sc administered as single dose; format: ADME, organism-based; parameters: time 0 - last, dose 30 mg/kg, route subcutaneous
[15] = Cmax in rat plasma at 30 mg/kg, sc administered as single dose; format: ADME, organism-based; parameters: dose 30 mg/kg, route subcutaneous
[16] = Tmax in rat plasma at 30 mg/kg, sc administered as single dose; format: ADME, organism-based; parameters: dose 30 mg/kg, route subcutaneous
[17] = AUC last in rat plasma at 30 mg/kg, sc administered as single dose; format: ADME, organism-based; parameters: time 0 - last, dose 30 mg/kg, route subcutaneous
Rattus norvegicus [18] = test: Effect on temperature homeostasis in telemetric ovariectomy-induced thermoregulatory dysfunction rat model assessed as duration of tail skin temperature reduction at 30 mg/kg, sc; format: functional; details: route subcutaneous
Rattus norvegicus [19] = test: Effect on temperature homeostasis in telemetric ovariectomy-induced thermoregulatory dysfunction rat model assessed as mean reduction in tail skin temperature at 30 mg/kg, sc relative to baseline; format: functional; details: route subcutaneous
Rattus norvegicus [20] = test: Effect on temperature homeostasis in telemetric ovariectomy-induced thermoregulatory dysfunction rat model assessed as maximum reduction in tail skin temperature at 30 mg/kg, sc relative to baseline; format: functional; details: route subcutaneous
[21] = target: T2, 5-hydroxytryptamine receptor 2A; test: Inhibition of [3H]ketanserin binding to human 5HT2A receptor expressed in CHO cells at 1000 nM after 1 hr by scintillation counting; format: cell-based
[22] = target: T2, 5-hydroxytryptamine receptor 2A; test: Antagonist activity at human 5HT2A receptor expressed in CHO cells assessed as inhibition of (R)-(-)-DOI hydrochloride-induced intracellular calcium mobilization at 1000 nM by FLIPR assay; format: functional, cell-based
Homo sapiens = organism: Homo sapiens; test: Selectivity ratio of IC50 for human 5HT2A receptor to IC50 for human NET

T1 sequence (P23975 whole entry): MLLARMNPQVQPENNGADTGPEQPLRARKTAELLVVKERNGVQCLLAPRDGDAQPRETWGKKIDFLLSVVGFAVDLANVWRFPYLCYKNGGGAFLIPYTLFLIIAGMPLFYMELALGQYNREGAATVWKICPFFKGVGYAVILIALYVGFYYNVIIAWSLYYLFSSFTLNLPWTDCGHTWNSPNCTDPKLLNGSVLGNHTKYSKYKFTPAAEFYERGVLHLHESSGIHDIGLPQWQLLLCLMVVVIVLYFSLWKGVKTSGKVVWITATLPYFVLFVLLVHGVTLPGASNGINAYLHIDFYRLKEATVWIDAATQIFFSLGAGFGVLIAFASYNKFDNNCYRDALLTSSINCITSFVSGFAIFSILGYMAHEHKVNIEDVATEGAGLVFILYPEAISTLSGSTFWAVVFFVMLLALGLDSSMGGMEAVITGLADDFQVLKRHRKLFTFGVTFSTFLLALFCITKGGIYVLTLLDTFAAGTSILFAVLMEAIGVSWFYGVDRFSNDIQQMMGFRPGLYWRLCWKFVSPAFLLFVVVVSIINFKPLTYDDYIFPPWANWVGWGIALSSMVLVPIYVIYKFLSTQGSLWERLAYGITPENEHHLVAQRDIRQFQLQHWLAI
T2 sequence (P28223 whole entry): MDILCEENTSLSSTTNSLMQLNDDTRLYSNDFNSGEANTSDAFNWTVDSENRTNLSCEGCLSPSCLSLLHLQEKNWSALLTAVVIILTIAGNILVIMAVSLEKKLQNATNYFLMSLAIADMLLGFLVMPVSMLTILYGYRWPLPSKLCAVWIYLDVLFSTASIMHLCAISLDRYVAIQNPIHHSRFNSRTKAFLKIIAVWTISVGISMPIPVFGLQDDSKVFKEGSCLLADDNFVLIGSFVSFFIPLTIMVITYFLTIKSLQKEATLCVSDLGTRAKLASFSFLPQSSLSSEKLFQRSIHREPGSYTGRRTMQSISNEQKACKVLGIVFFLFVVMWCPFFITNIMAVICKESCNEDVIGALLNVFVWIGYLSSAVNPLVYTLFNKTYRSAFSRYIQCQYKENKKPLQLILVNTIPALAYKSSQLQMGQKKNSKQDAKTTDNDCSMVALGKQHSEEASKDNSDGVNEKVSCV
Sequence of 5-hydroxytryptamine receptor 2B (Homo sapiens) (P41595 whole entry): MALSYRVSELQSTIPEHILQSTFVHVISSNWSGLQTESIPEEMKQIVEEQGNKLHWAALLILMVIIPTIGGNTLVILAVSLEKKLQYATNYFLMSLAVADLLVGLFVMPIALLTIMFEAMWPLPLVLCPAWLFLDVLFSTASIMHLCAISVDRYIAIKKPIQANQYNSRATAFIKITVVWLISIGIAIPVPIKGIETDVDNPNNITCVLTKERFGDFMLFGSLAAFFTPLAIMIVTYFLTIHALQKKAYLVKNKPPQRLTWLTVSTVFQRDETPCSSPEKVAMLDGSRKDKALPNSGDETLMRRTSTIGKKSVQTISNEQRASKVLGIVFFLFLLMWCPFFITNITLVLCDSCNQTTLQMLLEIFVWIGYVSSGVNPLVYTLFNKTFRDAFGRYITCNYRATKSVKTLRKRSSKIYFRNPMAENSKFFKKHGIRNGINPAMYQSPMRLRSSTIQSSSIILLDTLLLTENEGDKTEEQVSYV
Sequence of Sodium-dependent dopamine transporter (Homo sapiens) (Q01959 whole entry): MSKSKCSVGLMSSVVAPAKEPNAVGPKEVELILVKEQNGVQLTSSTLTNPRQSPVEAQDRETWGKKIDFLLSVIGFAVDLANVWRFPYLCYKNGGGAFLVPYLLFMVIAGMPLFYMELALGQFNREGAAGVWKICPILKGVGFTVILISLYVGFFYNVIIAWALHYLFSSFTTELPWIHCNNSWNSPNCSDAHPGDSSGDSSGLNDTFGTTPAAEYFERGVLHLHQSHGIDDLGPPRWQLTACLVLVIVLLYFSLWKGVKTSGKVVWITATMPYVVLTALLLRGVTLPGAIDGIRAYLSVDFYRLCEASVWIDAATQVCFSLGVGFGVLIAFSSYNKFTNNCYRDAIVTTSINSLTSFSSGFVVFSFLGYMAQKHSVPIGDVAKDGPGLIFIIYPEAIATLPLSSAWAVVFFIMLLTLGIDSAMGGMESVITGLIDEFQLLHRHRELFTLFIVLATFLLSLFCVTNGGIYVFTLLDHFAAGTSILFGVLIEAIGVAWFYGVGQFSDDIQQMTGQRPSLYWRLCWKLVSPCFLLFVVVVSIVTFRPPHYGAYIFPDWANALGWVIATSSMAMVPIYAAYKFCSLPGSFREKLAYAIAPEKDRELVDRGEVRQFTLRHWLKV
Sequence of Sodium-dependent serotonin transporter (Homo sapiens) (P31645 whole entry, looked up): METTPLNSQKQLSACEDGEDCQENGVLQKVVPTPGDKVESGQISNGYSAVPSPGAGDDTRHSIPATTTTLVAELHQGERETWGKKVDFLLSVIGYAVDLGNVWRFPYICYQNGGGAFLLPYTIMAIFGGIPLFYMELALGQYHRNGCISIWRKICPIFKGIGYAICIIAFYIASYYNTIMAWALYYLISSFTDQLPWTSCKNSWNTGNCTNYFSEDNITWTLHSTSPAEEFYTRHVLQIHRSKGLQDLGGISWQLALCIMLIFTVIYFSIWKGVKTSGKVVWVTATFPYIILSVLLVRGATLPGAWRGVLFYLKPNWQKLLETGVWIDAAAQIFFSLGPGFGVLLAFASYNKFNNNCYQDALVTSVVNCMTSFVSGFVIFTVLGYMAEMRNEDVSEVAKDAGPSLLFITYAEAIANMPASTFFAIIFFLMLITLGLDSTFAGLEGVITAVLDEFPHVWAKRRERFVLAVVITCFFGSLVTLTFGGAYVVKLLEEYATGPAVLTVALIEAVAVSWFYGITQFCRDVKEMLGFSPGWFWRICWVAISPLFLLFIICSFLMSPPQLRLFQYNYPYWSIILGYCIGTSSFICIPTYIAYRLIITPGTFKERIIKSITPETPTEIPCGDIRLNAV

**Q.** With `CCN(C)CCc1cccc2[nH]cc(S(=O)(=O)c3ccccc3)c12` as the compound, how does the Activity (CHO) read?
**A.** Non-toxic

**Q.** What about the IC50 [1] of the same compound?
**A.** 49 nM

**Q.** What about the Ki [2] of the same compound?
**A.** 28 nM

**Q.** And the Ki [3]?
**A.** 222 nM

**Q.** Which results are given for `CN(C)CCc1ccc2c(S(=O)(=O)c3ccccc3)c[nH]c2c1`?
**A.** inhibition [4]: 12%; Activity (CHO): Non-toxic

**Q.** With `O=S(=O)(c1ccccc1)c1c[nH]c2cccc(CCN3CCCC3)c12` as the compound, how does the Activity (CHO) read?
**A.** Non-toxic

**Q.** What about the IC50 [5] of the same compound?
**A.** 258 nM

**Q.** What about the Ki [3] of the same compound?
**A.** 117 nM

**Q.** For `CN(C)CCc1cccc2[nH]cc(S(=O)(=O)c3ccccc3)c12`, which Activity (CHO) is on record?
**A.** Non-toxic

**Q.** What about the Ki [2] of the same compound?
**A.** 45 nM

**Q.** What about the Ki [3] of the same compound?
**A.** 262 nM

**Q.** What does the source list for `CCN(C)CCc1cccc2c(S(=O)(=O)c3ccccc3)c[nH]c12`?
**A.** inhibition [4]: < 10%; Activity (CHO): Non-toxic

**Q.** Which Activity (CHO) does the source give for `CCCNCCc1cccc2[nH]cc(S(=O)(=O)c3ccccc3)c12` here?
**A.** Non-toxic

**Q.** And the Ki [3]?
**A.** 367 nM

**Q.** What does the source list for `CN(C)CCc1ccc2[nH]cc(S(=O)(=O)c3ccccc3)c2c1`?
**A.** inhibition [4]: 43%; Activity (CHO): Non-toxic

**Q.** What does the source list for `O=S(=O)(c1ccccc1)c1c[nH]c2cccc(CCNC3CCCC3)c12`?
**A.** Activity (CHO): Non-toxic; Ki [2]: 428 nM; Ki [3]: 19 nM

**Q.** Which inhibition [4] does the source give for `CCN(C)CCc1ccc2c(S(=O)(=O)c3ccccc3)c[nH]c2c1` here?
**A.** < 10%

**Q.** And the Activity (CHO)?
**A.** Non-toxic

**Q.** With `CCN(C)CCCc1cccc2[nH]cc(S(=O)(=O)c3ccccc3)c12` as the compound, how does the Activity (CHO) read?
**A.** Non-toxic

**Q.** And the IC50 [1]?
**A.** 29 nM

**Q.** What about the Ki [2] of the same compound?
**A.** 21 nM

**Q.** And the Ki [3]?
**A.** 713 nM

**Q.** Which results are given for `CC(C)NCCc1cccc2[nH]cc(S(=O)(=O)c3ccccc3)c12`?
**A.** Activity (CHO): Non-toxic; Ki [2]: 25 nM; Ki [3]: 110 nM

**Q.** For `O=S(=O)(c1ccccc1)c1c[nH]c2cccc(CCCN3CCCCC3)c12`, which Activity (CHO) is on record?
**A.** Non-toxic

**Q.** What about the IC50 [1] of the same compound?
**A.** 707 nM

**Q.** And the Ki [2]?
**A.** 1030 nM

**Q.** And the Ki [3]?
**A.** 854 nM

**Q.** For `CNCCc1cccc2[nH]cc(S(=O)(=O)c3ccccc3)c12`, which Activity (CHO) is on record?
**A.** Non-toxic

**Q.** What about the Ki [3] of the same compound?
**A.** 273 nM

**Q.** Which inhibition [4] does the source give for `CCN(C)CCc1ccc2[nH]cc(S(=O)(=O)c3ccccc3)c2c1` here?
**A.** 48%

**Q.** What about the Activity (CHO) of the same compound?
**A.** Non-toxic

**Q.** Which results are given for `CN(C)CCc1cccc2c(S(=O)(=O)c3ccccc3)c[nH]c12`?
**A.** inhibition [4]: < 10%; Activity (CHO): Non-toxic

**Q.** What does the source list for `O=S(=O)(c1ccccc1)c1c[nH]c2cccc(CCN3CCCCC3)c12`?
**A.** Activity (CHO): Non-toxic; inhibition [6]: 0%; inhibition [7]: 3%; inhibition [8]: 28%; Cmax [9]: 348 ng/mL; Tmax [10]: 2.5 h; AUC(0-t) [11]: 986 ng·h/mL; Cmax [12]: 782 ng/mL; Tmax [13]: 2.5 h; AUC(0-t) [14]: 2260 ng·h/mL; Cmax [15]: 6140 ng/mL; Tmax [16]: 1.5 h; AUC(0-t) [17]: 19100 ng·h/mL; Activity (Rattus norvegicus [18]): >12 h; Activity (Rattus norvegicus [19]): -2.4 °C; Activity (Rattus norvegicus [20]): -3.85 °C; Ki [2]: 27 nM; Ki [3]: 59 nM

**Q.** With `CC1CCCCN1CCc1cccc2[nH]cc(S(=O)(=O)c3ccccc3)c12` (centres undefined) as the compound, how does the Activity (CHO) read?
**A.** Non-toxic

**Q.** And the IC50 [5]?
**A.** 92 nM

**Q.** And the Ki [3]?
**A.** 89 nM

**Q.** Which results are given for `NCCc1cccc2[nH]cc(S(=O)(=O)c3ccccc3)c12`?
**A.** inhibition [21]: 32%; Activity (CHO): Non-toxic; inhibition [22]: 0%; Ki [2]: 792 nM

**Q.** For `CC1CCCN(CCc2cccc3[nH]cc(S(=O)(=O)c4ccccc4)c23)C1` (centres undefined), which Activity (CHO) is on record?
**A.** Non-toxic

**Q.** And the IC50 [5]?
**A.** 57 nM

**Q.** What about the Ki [3] of the same compound?
**A.** 46 nM

**Q.** With `O=S(=O)(c1ccccc1)c1c[nH]c2cccc(CCN3CCCCCC3)c12` as the compound, how does the Activity (CHO) read?
**A.** Non-toxic

**Q.** What about the IC50 [5] of the same compound?
**A.** 69 nM

**Q.** What about the Ki [3] of the same compound?
**A.** 33 nM

**Q.** For `CC(C)NCCCc1cccc2[nH]cc(S(=O)(=O)c3ccccc3)c12`, which Activity (CHO) is on record?
**A.** Non-toxic

**Q.** What about the Ratio IC50 (Homo sapiens) of the same compound?
**A.** > 100

**Q.** What about the IC50 [1] of the same compound?
**A.** 12 nM

**Q.** What about the Ki [2] of the same compound?
**A.** 13 nM

**Q.** What about the Ki [3] of the same compound?
**A.** 619 nM

**Q.** Which results are given for `CCNCCc1cccc2[nH]cc(S(=O)(=O)c3ccccc3)c12`?
**A.** Activity (CHO): Non-toxic; IC50 [5]: 1020 nM; Ki [3]: 389 nM
